Test [1] addresses T1, PRMT5/MEP50 complex (Homo sapiens, UniProt O14744).
T1 construct: purchased Reaction Biology Corporation
In words: PRMT5:MEP50 FlashPlate Assay (histone H4 peptide methylation). The format is biochemical. Particulars: 40 nM H4 (1-15) peptide, 1 μM SAM. The procedure:
The PRMT5 inhibitory activity of compounds of the present invention was determined using a PRMT5: MEP50 FlashPlate Assay and a PRMT5: MEP50 HotSpot Assay (Reaction Biology Corporation).
The assay uses purified human, PRMT5 enzyme to convert S-adenosyl-L-[methyl-3H]methionine plus histone H4 L-arginine to S-adenosyl-L-homocysteine plus histone H4 [methyl-3H]-L-arginine. The assay was carried out using Streptavidin-coated FlashPlates (Perkin Elmer), which contained a scintillant embedded in the plastic of the plate. The histone H4 peptide substrate was conjugated with biotin, which binds to the streptavidin-coated well of the plate, placing the H4 peptide in close proximity to the side well and the scintillant. The transfer of the tritiated methyl group from S-adenosyl-L-[methyl-3H]methionine to the bound histone H4 peptide generated a radiolabeled histone H4, which was quantitated by measuring in a scintillation counter to determine the activity of PRMT5 enzyme in the presence and absence of compound. […] Briefly, compounds of the present invention were solubilized in 100% DMSO at a highest concentration of 10 mM. […] Control samples lacking compound, PRMT5/MEP50 complex or various reaction components also were prepared and processed in parallel with compound test samples. SAH was used as a positive control for assay validation. To measure PRMT5 inhibitory activity, 3 nM PRMT5/MEP50 complex (Reaction Biology Corporation) was preincubated with test compound in assay buffer containing 40 nM histone H4 peptide (amino acids 1-15)-Biotin conjugate for 20 min at room temperature. The enzymatic reaction was initiated by adding 1 μM tritiated S-adenosyl methionine (final concentration) and the reaction is allowed to proceed for 20 min. The reaction was stopped and the amount of bound, tritiated H4 peptide in each sample was determined using a scintillation counter.

Test [2] has as its target T2, PRMT5-MEP50 (Homo sapiens, UniProt O14744).
T2 construct: biotin (in vivo biotinylated)
Nature of the test: SPR binding assay (PRMT5.MTA and PRMT5·SAM surfaces). Particulars: steady-state fit. The procedure: In vivo biotinylated PRMT5-MEP50 was diluted to […] in 25 mM Bicine pH 7.6, 100 mM NaCl, 1 mM TCEP, and 0.05% Tween-20 and injected at 5 μl/min flow rate into flow cell 2 (FC2) of a Series S Sensor Chip SA (Cytiva) in a Biacore T200 or in a Biacore 8K plus (Cytiva). SPR screening was performed in MTA running buffer (25 mM Bicine pH 7.6, 100 mM NaCl, 1 mM TCEP, 20 µM MTA, 0.05% Tween-20 and 2% DMSO). The biotinylated PRMT5-MEP50 surface was equilibrated with MTA running buffer for 12 hours prior to the start. […] Subsequently, compound titration was repeated in SAM-running buffer (25 mM Bicine pH 7.6, 100 mM NaCl, 1 mM TCEP, 20 μM SAM, 0.05% Tween-20, and 2% DMSO). […] After double referencing, the steady-state response was extracted for each fragment concentration and was fit to the Langmuir isotherm equation to determine the equilibrium dissociation constant (KD).

[3] abbreviates: PRMT5.MTA surface, MTA running buffer (20 µM MTA), read-out: KD MTA.
[4] abbreviates: PRMT5·SAM surface, SAM running buffer (20 μM SAM), read-out: KD SAM.

pIC50, pKd: −log10 of the molar value. Counter-ions that a name gives are not always drawn. Like-named read-outs stand apart in the source and are kept apart here. A value given as a limit tells only on which side of the number the result lay.

24 compounds from US20260109709A1 (MIRATI THERAPEUTICS, INC., priority 2021, published 2026) can be followed below.

T1 sequence (O14744 2-637 limits assumed): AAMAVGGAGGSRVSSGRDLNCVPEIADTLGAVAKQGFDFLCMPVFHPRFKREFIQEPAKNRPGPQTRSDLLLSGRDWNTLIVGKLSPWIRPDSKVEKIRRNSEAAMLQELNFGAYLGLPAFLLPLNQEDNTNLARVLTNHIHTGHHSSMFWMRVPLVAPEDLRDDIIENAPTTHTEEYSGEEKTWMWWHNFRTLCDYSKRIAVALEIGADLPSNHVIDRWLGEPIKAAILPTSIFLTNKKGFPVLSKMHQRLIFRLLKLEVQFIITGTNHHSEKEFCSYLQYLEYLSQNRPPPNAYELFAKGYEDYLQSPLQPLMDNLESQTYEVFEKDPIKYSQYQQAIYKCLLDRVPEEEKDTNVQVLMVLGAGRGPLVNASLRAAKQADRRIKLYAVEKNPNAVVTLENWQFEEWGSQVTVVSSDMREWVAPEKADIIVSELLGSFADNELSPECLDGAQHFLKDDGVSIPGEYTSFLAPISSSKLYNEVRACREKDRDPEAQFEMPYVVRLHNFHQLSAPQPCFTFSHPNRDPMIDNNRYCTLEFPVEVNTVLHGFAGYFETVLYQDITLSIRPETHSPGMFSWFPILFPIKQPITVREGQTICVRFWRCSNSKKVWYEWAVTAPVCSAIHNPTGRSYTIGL
T1 sequence (Q9BQA1 2-342 partner limits assumed): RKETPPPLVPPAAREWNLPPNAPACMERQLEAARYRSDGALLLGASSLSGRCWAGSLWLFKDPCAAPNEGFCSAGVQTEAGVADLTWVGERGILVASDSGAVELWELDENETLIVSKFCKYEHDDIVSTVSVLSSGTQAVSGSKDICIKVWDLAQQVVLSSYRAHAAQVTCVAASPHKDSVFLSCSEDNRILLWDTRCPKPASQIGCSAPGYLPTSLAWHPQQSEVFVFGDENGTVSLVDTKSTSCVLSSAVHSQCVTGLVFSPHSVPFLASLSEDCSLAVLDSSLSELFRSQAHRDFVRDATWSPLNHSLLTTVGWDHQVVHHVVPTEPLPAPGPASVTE
T2 sequence (O14744 whole entry): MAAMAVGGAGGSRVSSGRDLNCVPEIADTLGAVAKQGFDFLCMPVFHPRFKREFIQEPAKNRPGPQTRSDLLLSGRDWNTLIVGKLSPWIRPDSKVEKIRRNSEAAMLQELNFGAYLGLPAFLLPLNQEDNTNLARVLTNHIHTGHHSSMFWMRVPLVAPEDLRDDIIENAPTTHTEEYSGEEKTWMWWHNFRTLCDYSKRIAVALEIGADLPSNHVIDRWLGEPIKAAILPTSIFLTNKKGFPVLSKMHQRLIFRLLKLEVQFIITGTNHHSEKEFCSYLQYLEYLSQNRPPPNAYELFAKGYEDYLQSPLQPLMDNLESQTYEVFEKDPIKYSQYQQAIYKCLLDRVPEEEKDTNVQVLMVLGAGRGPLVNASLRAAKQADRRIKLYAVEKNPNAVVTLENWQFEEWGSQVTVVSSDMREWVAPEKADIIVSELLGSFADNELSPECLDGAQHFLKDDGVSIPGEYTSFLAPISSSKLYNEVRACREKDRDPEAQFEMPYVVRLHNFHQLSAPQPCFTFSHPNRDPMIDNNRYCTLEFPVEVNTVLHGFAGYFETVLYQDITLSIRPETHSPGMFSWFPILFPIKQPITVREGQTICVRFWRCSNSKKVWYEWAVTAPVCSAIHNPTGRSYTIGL
T2 sequence (Q9BQA1 whole entry partner): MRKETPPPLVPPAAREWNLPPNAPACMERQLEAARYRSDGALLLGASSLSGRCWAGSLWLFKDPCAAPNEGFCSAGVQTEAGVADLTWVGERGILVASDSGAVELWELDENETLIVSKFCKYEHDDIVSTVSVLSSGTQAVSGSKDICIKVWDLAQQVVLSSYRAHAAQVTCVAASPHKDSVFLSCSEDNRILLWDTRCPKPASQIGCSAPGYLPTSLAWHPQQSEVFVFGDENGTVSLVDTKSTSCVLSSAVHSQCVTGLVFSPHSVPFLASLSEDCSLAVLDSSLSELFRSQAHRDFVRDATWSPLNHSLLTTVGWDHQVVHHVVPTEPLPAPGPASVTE

Usually pIC50 stands for the negative decadic logarithm of the IC50, by convention in mol/L. A word on the pKd: it is −log10 of the Kd, conventionally taken in molar units. As to `Cn1c(N)nc2c(Nc3cnc4c(c3)CCCC4)cccc21` [Example 1-19, 1-methyl-N4-(5,6,7,8-tetrahydroquinolin-3-yl)-1H-benzo[d]imidazole-2,4-diamine], in test [1] (IC50 + 2 μM MTA, plus 2 μM MTA), the pIC50 was under 3.52. Also, the negative-log Kd (pKd) in test [2] (setting [3]) was 4.13; in test [2] (setting [4]), 3.69.

For the compound `Cn1nc(-c2cc(C#N)c3c(c2)nc(N)n3C)c2cnccc21` [Example 3-5, 2-amino-3-methyl-6-(1-methylpyrazolo[4,3-c]pyridin-3-yl)benzimidazole-4-carbonitrile], the pIC50 is under 3.52 in test [1] (IC50 + 2 μM MTA, plus 2 μM MTA) and under 3.52 in test [1] (absence of MTA, read-out: IC50). Besides, the negative logarithm of the Kd (pKd) is 5.94 in test [2] (setting [3]) and 5.56 in test [2] (setting [4]).

With `Cn1c(N)nc2c(C3CCOC3)ccc(Cl)c21` (centres unmarked) [Example 2-8, 7-chloro-1-methyl-4-tetrahydrofuran-3-yl-benzimidazol-2-amine hydrochloride], the negative-log IC50 (pIC50) in test [1] (IC50 + 2 μM MTA, plus 2 μM MTA) is under 3.52; in test [1] (absence of MTA, read-out: IC50), under 3.52. Further, the negative-log Kd (pKd) in test [2] (setting [3]) was 4.61.

Consider `Cn1c(N)nc2cc(Cc3cccnc3)cc(C#N)c21` [Example 3-2, 2-amino-3-methyl-6-(3-pyridylmethyl)benzimidazole-4-carbonitrile], for which the pIC50 is 3.96 in test [1] (IC50 + 2 μM MTA, plus 2 μM MTA) and under 3.52 in test [1] (absence of MTA, read-out: IC50). Besides, the figures for the pKd in test [2] (setting [3]) and in test [2] (setting [4]) were 6.29 and 4.45, respectively.

In the case of `Cn1c(N)nc2c(Nc3cnc4c(c3)CCCC4)ccc(C#N)c21` [Example 3-30, 2-amino-1-methyl-4-((5,6,7,8-tetrahydroquinolin-3-yl)amino)-1H-benzo[d]imidazole-7-carbonitrile], the pKd was 4.77 in test [2] (setting [3]) and 4.49 in test [2] (setting [4]).

Turning to `Cn1c(N)nc2c(Nc3cnc4c(c3)CCCC4)ccc(Cl)c21` [Example 2-4, 7-chloro-1-methyl-N^4-(5,6,7,8-tetrahydroquinolin-3-yl)-1H-benzo[d]imidazole-2,4-diamine hydrochloride], the pIC50 in test [1] (IC50 + 2 μM MTA, plus 2 μM MTA) is under 3.52; in test [1] (absence of MTA, read-out: IC50), under 3.52. For the same compound, the negative-log Kd (pKd) is 4.57 in test [2] (setting [3]) and 4.39 in test [2] (setting [4]).

Turning to `Cn1nccc1Cc1cc(C#N)c2c(c1)nc(N)n2C` [Example 3-8, 2-amino-3-methyl-6-[ (2-methylpyrazol-3-yl)methyl]benzimidazole-4-carbonitrile], the negative logarithm of the IC50 (pIC50) in test [1] (IC50 + 2 μM MTA, plus 2 μM MTA) was under 3.52; in test [1] (absence of MTA, read-out: IC50) it was under 3.52. In addition, the pKd was 5.35 in test [2] (setting [3]) and 4.99 in test [2] (setting [4]).

In the case of `COc1c(Cc2cccnc2)cc(C#N)c2c1nc(N)n2C` [Example 3-22, 2-amino-7-methoxy-3-methyl-6-(3-pyridylmethyl)benzimidazole-4-carbonitrile hydrochloride], the pKd in test [2] (setting [3]) is 4.79; in test [2] (setting [4]), 4.10.

With `Cn1cc(-c2ccc3c(c2)nc(N)n3C)cn1` [Example 1-53, 1-methyl-5-(1-methyl-1H-pyrazol-4-yl)-1H-benzo[d]imidazol-2-amine], the pIC50 in test [1] (IC50 + 2 μM MTA, plus 2 μM MTA) was under 3.52. The negative-log Kd (pKd) in test [2] (setting [3]) is 4.35; in test [2] (setting [4]), 3.73.

In the case of `Cn1cc(Cc2cc(C#N)c3c(c2)nc(N)n3C)cn1` [Example 3-6, 2-amino-3-methyl-6-[ (1-methylpyrazol-4-yl)methyl]benzimidazole-4-carbonitrile], the negative-log IC50 (pIC50) was 4.35 in test [1] (IC50 + 2 μM MTA, plus 2 μM MTA) and under 3.52 in test [1] (absence of MTA, read-out: IC50). The pKd in test [2] (setting [3]) was 6.75; in test [2] (setting [4]) it was 5.71.

Take `Cn1ccc(-c2ccc3c(c2)nc(N)n3C)n1` [Example 1-2, 1-methyl-5-(1-methyl-1H-pyrazol-3-yl)-1H-benzo[d]imidazol-2-amine]: the negative logarithm of the IC50 (pIC50) in test [1] (IC50 + 2 μM MTA, plus 2 μM MTA) is under 3.52. Also, the pKd in test [2] (setting [3]) is 4.31; in test [2] (setting [4]), 4.18.

Regarding `Nc1nc2ncccc2n1Cc1ccccc1` [Example 5-2, 1-benzylimidazo[4,5-b]pyridin-2-amine hydrochloride], the negative logarithm of the IC50 (pIC50) in test [1] (IC50 + 2 μM MTA, plus 2 μM MTA) is 4.12; in test [1] (absence of MTA, read-out: IC50), under 3.52. In test [2] (setting [4]), the pKd was 3.75.

For the compound `CN(c1cccnc1)c1cc(Cl)c2c(c1)nc(N)n2C` [Example 2-9, 7-chloro-N5-1-dimethyl-N5-(3-pyridyl)benzimidazole-2,5-diamine hydrochloride], the pIC50 in test [1] (IC50 + 2 μM MTA, plus 2 μM MTA) was under 3.52; in test [1] (absence of MTA, read-out: IC50) it was under 3.52. Moreover, the pKd was 4.18 in test [2] (setting [3]) and 3.76 in test [2] (setting [4]).

For the compound `Cn1c(N)nc2cc(Cc3ccccn3)cc(C#N)c21` [Example 3-3, 2-amino-3-methyl-6-(2-pyridylmethyl)benzimidazole-4-carbonitrile], the pIC50 in test [1] (IC50 + 2 μM MTA, plus 2 μM MTA) is 4.75; in test [1] (absence of MTA, read-out: IC50), 3.87. The pKd is 6.73 in test [2] (setting [3]) and 5.56 in test [2] (setting [4]).

Take `Cn1ncc(-c2cc(Cl)cc3c2nc(N)n3C)c1-c1ccccc1C#N` [Example 6-1, 2-[4-(2-amino-6-chloro-1-methyl-benzimidazol-4-yl)-2-methyl-pyrazol-3-yl]benzonitrile]: the negative logarithm of the IC50 (pIC50) in test [1] (IC50 + 2 μM MTA, plus 2 μM MTA) is 4.85; in test [1] (absence of MTA, read-out: IC50), under 3.52. Also, the values for the pKd in test [2] (setting [3]) and in test [2] (setting [4]) were 6.49 and 6.09, respectively.

With `Cn1c(N)nc2cc(C(=O)c3cccnc3)cc(C#N)c21` [Example 3-16, 2-amino-3-methyl-6-(pyridine-3-carbonyl)benzimidazole-4-carbonitrile], the pIC50 in test [1] (IC50 + 2 μM MTA, plus 2 μM MTA) was under 3.52; in test [1] (absence of MTA, read-out: IC50), under 3.52. Besides, the results for the pKd in test [2] (setting [3]) and in test [2] (setting [4]) were 5.12 and 4.63, respectively.

As for `Cc1cc(-c2cnn(C)c2-c2ccccc2C#N)c2nc(N)n(C)c2c1` [Example 6-2, 2-[4-(2-amino-1,6-dimethyl-benzimidazol-4-yl)-2-methyl-pyrazol-3-yl]benzonitrile hydrochloride], the pIC50 in test [1] (IC50 + 2 μM MTA, plus 2 μM MTA) is 4.53; in test [1] (absence of MTA, read-out: IC50), under 3.52. Besides, in test [2] (setting [3]), the negative logarithm of the Kd (pKd) is 7.33.

As for `CN(Cc1nnc2n1CCOC2)c1ccc2c(c1)nc(N)n2C` [Example 1-83, N5-((5,6-dihydro-8H-[1,2,4]triazolo[3,4-c][1,4]oxazin-3-yl)methyl)-N5,1-dimethyl-1H-benzo[d]imidazole-2,5-diamine], the pIC50 in test [1] (IC50 + 2 μM MTA, plus 2 μM MTA) is under 3.52. Besides, the figures for the negative-log Kd (pKd) in test [2] (setting [3]) and in test [2] (setting [4]) were 7.05 and 4.38, respectively.

With `Cn1ncc(-c2ccc(Cl)c3c2nc(N)n3C)c1-c1c(F)cc2ccccc2c1C#N` [Example 2-2, 2-[4-(2-amino-7-chloro-1-methyl-benzimidazol-4-yl)-2-methyl-pyrazol-3-yl]-3-fluoro-naphthalene-1-carbonitrile hydrochloride], the negative-log IC50 (pIC50) in test [1] (IC50 + 2 μM MTA, plus 2 μM MTA) was 6.28; in test [1] (absence of MTA, read-out: IC50), 4.97. In addition, the pKd is 6.82 in test [2] (setting [3]) and 6.17 in test [2] (setting [4]).

Consider `Cc1ncc(CNc2cccc3c2nc(N)n3C)n1-c1ccccc1` [Example 1-12, 1-methyl-N4-((2-methyl-1-phenyl-1H-imidazol-5-yl)methyl)-1H-benzo[d]imidazole-2,4-diamine], for which the negative-log IC50 (pIC50) in test [1] (IC50 + 2 μM MTA, plus 2 μM MTA) was under 3.52. Further, the negative logarithm of the Kd (pKd) in test [2] (setting [3]) is 5.61; in test [2] (setting [4]) it was 4.71.

For `Cn1c(N)nc2cc(Cc3cccnc3)cc(Cl)c21` [Example 2-10, 7-chloro-1-methyl-5-(3-pyridylmethyl)benzimidazol-2-amine hydrochloride], the negative logarithm of the IC50 (pIC50) is 4.01 in test [1] (IC50 + 2 μM MTA, plus 2 μM MTA) and under 3.52 in test [1] (absence of MTA, read-out: IC50). Besides, the pKd in test [2] (setting [3]) was 5.82; in test [2] (setting [4]) it was 4.32.

In the case of `CC(C)c1nc(Nc2cccc3c2nc(N)n3C)ns1` [Example 1-42, N4-(5-isopropyl-1,2,4-thiadiazol-3-yl)-1-methyl-1H-benzo[d]imidazole-2,4-diamine], the pIC50 in test [1] (IC50 + 2 μM MTA, plus 2 μM MTA) was under 3.52. In addition, the negative logarithm of the Kd (pKd) in test [2] (setting [3]) was 4.68.

For the compound `COc1cccc(CN(C)c2ccc3c(c2)nc(N)n3C)c1` [Example 1-48, N5-(3-methoxybenzyl)-N5,1-dimethyl-1H-benzo[d]imidazole-2,5-diamine], the values for the pKd in test [2] (setting [3]) and in test [2] (setting [4]) were 4.41 and 3.97, respectively.

`Cn1c(N)nc2c(-c3ccccc3)cccc21` [Example 1-65, 1-methyl-4-phenyl-1H-benzo[d]imidazol-2-amine]: the pIC50 in test [1] (IC50 + 2 μM MTA, plus 2 μM MTA) is under 3.52.
